Measured values published in patent US10106542B2, “Substituted 6,7-dihydropyrazolo[1,5-a]pyrazines as negative allosteric modulators of mGluR2 receptors” (Janssen Pharmaceutica NV, priority 2013, dated 2018).
Where two headings read alike, the source gives them in different places.

Key:
Male Long Evans rats = test: V-maze test (PCP-disrupted visual-spatial working memory); assay type: in vivo, rat; conditions: p.o. 4 h before test
Source text: The V-maze-test is a two-trial short term visual-spatial working memory task based on spontaneous exploration of a new and a familiar arm in a 2-arm maze (Embrechts et al. (2013) “Longitudinal characterization of the TauPS2APP mouse model of Alzheimer's disease in a two trial discrimination task of visuo-spatial recognition memory”, 45th European Brain and Behaviour Society Meeting 6-9 Sep. 2013, Munich, Abstract P202).
Male Long Evans rats (Janvier, France, body weight 280 to 295 g) were group housed in enriched individually ventilated cages and habituated to environmental conditions for 5 days. After acclimatization, animals were single housed for 4 days until testing. During this period animals were handled for 2 min per day and received sham dosing once a day for 3 days prior to the test. The V-maze consisted of two arms (L×W×H: 70×10×30 cm) at a 90° angle to each other to form a V-shaped maze connected by guillotine doors to a center zone. […] The animal's exploration of each arm was automatically quantified using Ethovision XT 7.0 (Noldus, The Netherlands). […] The time spent in the familiar and new arm respectively during the choice session was recorded for 5 min.
Co. No. 1 was evaluated in rats in a series of dose-response studies evaluating doses from 0.16 to 10 mg/kg. […]

Wiga rats = test: Reserpine interaction test in rats; assay type: in vivo, rat; conditions: Rattus norvegicus, Wiga rats
Protocol: 4) Reserpine Interaction Test in Rats
It was investigated to what extent the mydriatic action of test compounds was sufficient to counteract the miosis induced by the monoamines-depleting agent reserpine (10 mg/kg; SC) in Wiga rats.
The effects are illustrated in FIG. 3. […] The reference mGlu2 NAMs RO-4995819 (40 mg/kg, p.o.), RO-4491533 (40 mg/kg, p.o.; 10 mg/kg, s.c.) and [CAS 579473-69-1]

Male Wiga Wistar rats = test: Reversal of LY-404039-induced decrease of palpebral opening in apomorphine-challenged rats; assay type: in vivo; conditions: Rattus norvegicus, reversal of LY-404039-induced decrease of palpebral opening (cumulative score >26) in apomorphine challenged rats
Protocol: 6) Reversal of LY-404039-Induced Decrease of Palpebral Opening in Apomorphine-Challenged Rats.
Male Wiga Wistar rats (Crl:WI; Charles River Germany; 220±40 g) were housed under standard laboratory conditions (21±2° C.; 50-65% relative humidity; light-dark cycle set at 12 h; lights on at 6.00 h) and fasted overnight prior to the start of the experiments (tap water remained available ad libitum). During the test period, they were housed in individual cages. The local Ethical Committee approved all studies in compliance with the Declaration of Helsinki. Palpebral opening was scored every 5 min over the first hour after injection of apomorphine (1.0 mg/kg, i.v.) in animals either pretreated or not pretreated with LY-404039 (2.5 mg/kg, s.c.) at 1 h prior to the apomorphine injection. The animals were also pretreated with test compound or solvent at a predefined interval before apomorphine challenge. The score system was: (5) exophthalmos, (4) wide open, (3) open for three-quarters, (2) half open, (1) open for one-quarter, (0) closed. The scores for palpebral opening were cumulated over the 60-min observation period. A cumulative palpebral opening score >26 was selected for drug-induced reversal of the LY-404039-induced decrease of palpebral opening (occurrence in 3.2% of control animals pretreated with LY-404039 (n=154) versus in 99.5% of control rats not pretreated with LY-404039 (n=6335)).
In animals receiving apomorphine alone the median palpebral opening is 43 whereas in animals receiving apomorphine and LY-404039, the median palpebral opening is 17.

SMILES: Cc1cc(-c2cnn3c2C(=O)N(c2ccc(C(F)(F)F)cc2)C[C@@H]3C)ccn1 [compound 1, (7S)-7-Methyl-3-(2-methylpyridin-4-yl)-5-[4-(trifluoromethyl)phenyl]-6,7-dihydropyrazolo[1,5-a]pyrazin-4(5H)-one]
- reversal effect against PCP observed up to the highest dose tested (Male Long Evans rats; PCP 0.75 mg/kg s.c.): ≤ 10 mg/kg
- doses at which PCP-challenged rats showed again a clear preference for the new arm (Male Long Evans rats; PCP 0.75 mg/kg s.c. 30 min prior, doses 0.16 to 10 mg/kg evaluated): ≥ 0.32 mg/kg
- ED50 (Wiga rats; p.o., -1 h, reserpine 10 mg/kg SC, read-out: ED50 reversal of reserpine-induced miosis): 9.4 mg/kg
- ED50 (Wiga rats; p.o., -1 h, reserpine 10 mg/kg SC, read-out: ED50 reversal of reserpine-induced ptosis): 0.78 mg/kg
- ED50 (Wiga rats; p.o., -1 h, reserpine 10 mg/kg SC, read-out: ED50 reversal of reserpine-induced sedation): 7.1 mg/kg
- ED50 (Wiga rats; p.o., -4 h, reserpine 10 mg/kg SC, read-out: ED50 reversal of reserpine-induced miosis): 9.4 mg/kg
- ED50 (Wiga rats; p.o., -4 h, reserpine 10 mg/kg SC, read-out: ED50 reversal of reserpine-induced ptosis): 0.78 mg/kg
- ED50 (Wiga rats; p.o., -4 h, reserpine 10 mg/kg SC, read-out: ED50 reversal of reserpine-induced sedation): 14 mg/kg
- ED50 (Wiga rats; po, -1 h, read-out: ED50 mydriasis before the reserpine challenge): 1.55 mg/kg
- ED50 (Wiga rats; po, -4 h, read-out: ED50 mydriasis before the reserpine challenge): 0.89 mg/kg
- ED50 (Wiga rats; po, Time 60, reserpine 10 mg/kg SC, read-out: ED50, reversal of reserpine-induced ptosis): 0.67 mg/kg
- ED50 (Wiga rats; po, Time 240, reserpine 10 mg/kg SC, read-out: ED50, reversal of reserpine-induced ptosis): 0.89 mg/kg
- ED50 (Wiga rats; sc, Time 60, reserpine 10 mg/kg SC, read-out: ED50, reversal of reserpine-induced ptosis): 1.01 mg/kg
- ED50 (Wiga rats; sc, read-out: ED50 mydriasis before the reserpine challenge): 1.78 mg/kg
- ED50 (Wiga rats; sc, reserpine 10 mg/kg SC, read-out: ED50 reversal of reserpine-induced miosis): 4.1 mg/kg
- ED50 (Wiga rats; sc, reserpine 10 mg/kg SC, read-out: ED50 reversal of reserpine-induced ptosis): 1.03 mg/kg
- ED50 (Wiga rats; sc, reserpine 10 mg/kg SC, read-out: ED50 reversal of reserpine-induced sedation): 9.4 mg/kg
- ED50 (Male Wiga Wistar rats; Route PO): 0.45 mg/kg
- ED50 (Male Wiga Wistar rats; Route SC): 0.3 mg/kg
